Solo % activity data for two compounds are collected here from patent publication US20230080819A1, “HERBICIDE COMBINATIONS COMPRISING GLUFOSINATE AND TIAFENACIL” (BASF SE, priority 2020, published 2023).

Molecules are shown by their SMILES.

Format in all cases: in vivo
Details in all cases: 20 DAT

Experiment [1] relates to Amaranthus tuberculatus (AMATU). Description: Greenhouse post-emergence weed control, waterhemp.
Experiment [2] deals with Amaranthus Palmeri (AMAPA). Description: Greenhouse post-emergence weed control, Palmer Amaranth.
Experiment [3] has as its system Galium aparine (GALAP). Description: Greenhouse post-emergence weed control, Cleavers.
For experiment [4], the system named is Echinochloa crus-galli (ECHCG). Description: Greenhouse post-emergence weed control, barnyardgrass.

Turning to `COC(=O)CCNC(=O)C(C)Sc1cc(-n2c(=O)cc(C(F)(F)F)n(C)c2=O)c(F)cc1Cl` (stereo not shown) [Tiafenacil, tiafenacil], the Solo % activity was found to be 15% in experiment [1] (Tiafenacil 1.5 g ai/ha solo, AMATU (Table 2)); 15% in experiment [1] (Tiafenacil 1.5 g ai/ha solo, AMATU (Table 5)); 15% in experiment [1] (Tiafenacil 1.5 g ai/ha solo, post-emergence, AMATU, 1% MSO); 0% in experiment [2] (Tiafenacil 0.15 g ai/ha solo); 25% in experiment [2] (Tiafenacil 1.5 g ai/ha solo); 0% in experiment [3] (Tiafenacil 0.5 g ai/ha solo). The Solo % activity in experiment [4] (Tiafenacil 0.5 g ai/ha solo, ECHCG (Table 3)) is 10%; in experiment [4] (Tiafenacil 0.5 g ai/ha solo, ECHCG (Table 7)), 10%.
In the case of `CP(=O)(O)CCC(N)C(=O)O` (racemic) [Glufosinate, (2RS)-2-amino-4-[hydroxy(methyl)phosphinoyl]butyric acid], the Solo % activity in experiment [1] (Glufosinate 50 g ai/ha solo, post-emergence, AMATU, 1% MSO) amounted to 10%; in experiment [1] (Glufosinate 100 g ai/ha solo, AMATU), 10%; in experiment [1] (Glufosinate 200 g ai/ha solo, AMATU) it was 70%; in experiment [2] (Glufosinate 100 g ai/ha solo) it was 25%; in experiment [2] (Glufosinate 200 g ai/ha solo), 75%; in experiment [3] (Glufosinate 100 g ai/ha solo), 60%. Also, the Solo % activity in experiment [4] (Glufosinate 50 g ai/ha solo, ECHCG) came to 10%; in experiment [4] (Glufosinate 100 g ai/ha solo, ECHCG), 25%.
